Results from US20080113956A1, “Substituted Porphyrins” (priority 1997, published 2008).
Read-outs that look alike come from different tables or passages of the source.

Experiments:
[1] = Electrochemistry: metal-centered redox potential; type: physicochemical; conditions: for Redox Potential (E1/2): metal centered, pH 7.8 if not otherwise specified; for redox potential: text of Example VIII, unit not given
Description: Electrochemistry. The electrochemical characterization was performed as described previously on a Voltammetric Analyzer Model 600 (CH instrument) using a glassy carbon electrode (Ag/AgCl reference and Pt auxiliary electrodes), at 0.5 mM porphyrin, pH 7.8 (0.05 M phosphate buffer), 0.1 M NaCl. The potentials were standardized against potassium ferricyanide/potassium ferrocyanide couple (Batinic-Haberle et al, Arch. Biochem. Biophys. 343:225 (1997); Kolthof et al, J. Phys. Chem. 39:945 (1974)).
Electrochemistry. The metal-centered redox behavior of all metalloporphyrin products was reversible. The half-wave potentials (E^O1/2) were calculated as the average of the cathodic and anodic peaks and are given in mV vs NHE (Table 5). The average shift per chlorine is +55 mV (Table 5), which is in agreement with the values previously reported for H2TPP derivatives (between −50 and +70 mV) (Sen et al, Chem. Soc. Faraday Trans. 93:4281 (1997); Autret et al. J. Chem. Soc. Dalton Trans. 2793 (1996); Hariprasad et al, J. Chem. Soc. Dalton Trans. 3429 (1996); Tagliatesta et al, Inorg. Chem. 35:5570 (1996); Ghosh, J. Am. Chem. Soc. 117:4691 (1995); Takeuchi et al, J. Am. Chem. Soc. 116:9730 (1994); Binstead et al, Inorg. Chem. 30:1259 (1991); Giraudeau et al, J. Am. Chem. Soc. 101:3857 (1979)). This shift appears to be higher (˜+65 mV) between 0 and 1, and between 2 and 3 chlorines (Table 5). […] The manganese redox state of MnCl4TE-2-PyP^5 (E^O1/2=+448 mV) and MnOBTMPyP^4+ (E^O1.2=+480 mV) is 3+ and 2+, respectively. This difference may be explained by their difference in terms of redox potential (˜30 mV) but also by structural considerations, for instance an increased distortion of the porphyrin ring in the case of MnOBTMPyP^4+. (Batinic-Haberle et al, Arch. Biochem. Biophys. 343:225 (1997); Ochsenbein et al, Angew. Chem. Int. Ed. Engl. 33:348 (1994)).

SOD null E. coli (JI132) = assay: Aerobic growth of SOD null E. coli strain versus parental strain; type: cell-based; conditions: for aerobic growth (A700) of SOD null E. coli cells: 20 μM, glucose minimal medium (M9) plus 5 essential amino acids, JI132
Description: FIG. 3. SOD activity in vivo (E. coli) of 1, 2, 3* and 4* (20 μM) in minimal medium (mixture of atropoisomers, JI=SOD deficient strain, AB parental strain).
(§1) SOD activity can be monitored in the presence and absence of EDTA using the method of McCord and Fridovich (J. Biol. Chem. 244:6049 (1969)). The efficacy of a mimetic can also be determined by measuring the effect of the mimetic on the aerobic growth of a SOD null E. coli strain versus a parental strain lacking the specific mutations. Specifically, parental E. coli (AB1157) and SOD null E. coli. (JI132) can be grown in M9 medium containing 0.2% casamino acids and 0.2% glucose at pH 7.0 and 37° C.; growth can be monitored in terms of turbidity followed at 700 nm.
The activity in vivo of the mimetics of the invention can be tested on an E. coli strain deleted of the genes coding for both the MnSOD and FeSOD. In this assay, the efficacy of a mimetic is determined by measuring the effect of the mimetic on the aerobic growth of a SOD null E. coli strain versus a parental strain. Specifically, parental E. coli (AB1157) and SOD null E. coli. (JI132) are grown in M9 medium containing 0.2% casamino acids and 0.2% glucose at pH 7.0 and 37° C.; growth is monitored in terms of turbidity followed at 700 nm.

[2] = SOD-like activity in vitro (xanthine/xanthine oxidase, ferricytochrome c; McCord and Fridovich); type: biochemical; conditions: for rate of dismutation (kcat): Example VII
Description: as §1
The superoxide dismutase activity of the mimetics of the invention depends on a number of factors, including thermodynamic factors (eg the metal-centered redox-potential see FIG. 1)), and kinetic factors (eg electrostatic facilitation).
Superoxide dismuting activity. The SOD-like activities were measured using the xanthine/xanthine oxidase system as a source of O2^− and ferricytochrome c as its indicating scavenger (McCord et al, J. Biol. Chem. 244:6049 (1969)). O2— was produced at the rate of 1.2 μM per minute and reduction of ferricytochrome c was followed at 550 nm. Assays were conducted in presence of 0.1 mM EDTA in 0.05 M phosphate buffer (pH 7.8). Rate constants for the reaction of the compounds were based upon competition with […] cytochrome c, kcyt c=2.6×10^5 M^−1s^−1 (Butler et al, J. Biol. Chem. 257:10747 (1982)). All measurements were done at 25° C. Cytochrome c concentration was at least 10^3-fold higher than the concentrations of the SOD mimics and the rates were linear for at least two minutes, during which the compounds intercepted ˜100 equivalents of O2^−, thus confirming the catalytic nature of O2^− dismutation in presence of the mimics.
Superoxide dismuting activities. SOD-like activities were measured as described previously, based on competition with cytochrome c (McCord et al, J. Biol. Chem. 244:6049 (1969)). MnClxTE-2-PyP^5+ SOD-like activities are reported in Table 5, IC50 (M) representing the concentration for one unit of activity (or the concentration that causes 50% inhibition of cytochrome c reduction by O2^−) and kcat (M^−1s^−1) representing the rate constant for the superoxide dismutation reaction. The SOD-like activity per mole of MnCl4TE-2-PyP^5 is approximately 2-, 7- and 100-fold higher than MnOBTMPyP^4+, MnTM-2-PyP^5+ and MnTM-4PyP^5+, respectively (Faulkner et al, J. Biol. Chem. 269:23471 (1994); Batinic-Haberle et al, Arch. Biochem. Biophys. 343:225 (1997); Batinic-Haberle et al, J. Biol. Chem. 273:24521 (1998)). The SOD-like activity of MnCl4TE-2-PyP^5+ represents 20% of the activity of the Cu,Zn-SOD enzyme on a molar basis (40% per active site considering that the enzyme has two active sites) (Klug-Roth et al, J. Am. Chem. Soc. 95:2786 (1973)).

[3] = SOD activity in U/mg (reduction of cytochrome c or photoreduction of NBT); type: biochemical; conditions: for SOD: unit = amount that inhibits one half the reduction of cytochrome c or photoreduction of NBT
[4] = vs NHE, literature comparators, cited from earlier work

Compound	E°1/2 half-wave potential ([1]; vs NHE, 0.5 mM porphyrin, 0.1 M NaCl, 0.05 M phosphate buffer (pH 7.8))	aerobic growth (A700) of SOD null E. coli cells (SOD null E. coli (JI132))	kcat rate constant for the superoxide dismutation reaction ([2]; 0.1 mM EDTA, 0.05 M phosphate buffer pH 7.8, 25° C.)	IC50 ([2]; 0.1 mM EDTA, 0.05 M phosphate buffer pH 7.8, 25° C., read-out: IC50 concentration that causes 50% inhibition of cytochrome c reduction by O2^−) [nM]	Redox Potential (E1/2) ([1]; vs NHE)	redox potential [1]	E1/2 one-electron metal-centered redox-potential ([1]; vs NHE, listed as 1)	half-wave potential (E1/2) ([1]; vs normal hydrogen electrode (NHE), Example VII)	aerobic growth (A700) of SOD null E. coli cells (SOD null E. coli (JI132); listed as 1)	growth of SOD-deficient Escherichia coli (SOD null E. coli (JI132); Example VII)	SOD [3]	E°1/2 half-wave potential of comparison compounds [4]	E°1/2 half-wave potential of comparison compounds ([4]; listed as MnTM-4-PyP^5−)	rate of dismutation (kcat) [2] [M⁻¹ s⁻¹]	aerobic growth (A700) of SOD null E. coli cells (SOD null E. coli (JI132); listed as 3)	toxicity in vivo (E. coli) (SOD null E. coli (JI132); FIG. 3)	difference in SOD activity, ortho vs para ([3]; MnTM-2-PyP vs MnTM-4-PyP)	E°1/2 half-wave potential of comparison compounds ([4]; listed as MnTM-2-PyP^3−)	SOD activity in vitro relative to the para compound 1 ([2]; in vitro enzymatic assay)
CC[n+]1ccccc1-c1c2nc(c(-c3cccc[n+]3CC)c3ccc([n-]3)c(-c3cccc[n+]3CC)c3nc(c(-c4cccc[n+]4CC)c4ccc1[n-]4)C=C3)C=C2.[Mn+3] [MnTE-2-PyP^5+, manganic meso-tetrakis-(N-ethylpyridinium-2-yl)porphyrin]	+228 mV	increase in A700	5.7 10^7 M^−1 s^−1	45															
manganese(III) 5,10,15,20-tetrakis(N-methylpyridyl)porphyrin [MnTM-4-PyP^5+, reference compound]					+0.06 V	+0.06	+0.060 V	+0.060 V	did not show an increase in A700	inhibited growth	547 U/mg	+60 mV	+060 mV	3.8e+06					
manganese(III) 5,10,15,20-tetrakis(N-methylpyridyl)porphyrin [MnTM-2-PyP^5+]					+0.22 V	+0.22					8,500 U/mg			6e+07	increase in A700	decreased toxicity	factor of six	+220 mV	more than an order of magnitude more active
